Conditions: for vapor or sublimation pressure: Liquid, Gas chromatography

C=CC(C)(O)CC/C=C(/C)CCC=C(C)C (centres undefined) [(Z)-3,7,11-trimethyldodeca-1,6,10-trien-3-ol]
Conditions | vapor or sublimation pressure [kPa]
298.15 K | 7.5e-05
310 K | 0.00032
320 K | 0.001
330 K | 0.0026
340 K | 0.0067
350 K | 0.016
360 K | 0.034
370 K | 0.071
380 K | 0.14
390 K | 0.26
400 K | 0.46
410 K | 0.79
420 K | 1.3
430 K | 2.1
440 K | 3.3
450 K | 4.9
460 K | 7.2
470 K | 10
480 K | 15
490 K | 20
500 K | 27
550.3 K | 101.33

C=CC(C)(O)CC/C=C(\C)CCC=C(C)C (centres undefined) [(E)-3,7,11-trimethyldodeca-1,6,10-trien-3-ol]
Conditions | vapor or sublimation pressure [kPa]
298.15 K | 6e-05
310 K | 0.00024
320 K | 0.00074
330 K | 0.0021
340 K | 0.0053
350 K | 0.013
360 K | 0.028
370 K | 0.058
380 K | 0.115
390 K | 0.22
400 K | 0.39
410 K | 0.67
420 K | 1.1
430 K | 1.8
440 K | 2.8
450 K | 4.3
460 K | 6.3
470 K | 9.1
480 K | 13
490 K | 18
500 K | 24
554.7 K | 101.33

OC12CC3CC(CC(C3)C1)C2 [1-adamantanol]
Conditions | vapor or sublimation pressure [kPa]
298.15 K | 0.0019
310 K | 0.0062
320 K | 0.015
330 K | 0.035
340 K | 0.074
350 K | 0.15
360 K | 0.28
370 K | 0.51
380 K | 0.88
390 K | 1.5
400 K | 2.3
410 K | 3.6
420 K | 5.4
430 K | 7.9
440 K | 11
450 K | 16
460 K | 22
470 K | 29
480 K | 38
490 K | 49
500 K | 62
521.2 K | 101.33

C[C@@H]1CC[C@H]2C(C)(C)[C@H]3C[C@@]12CC[C@@]3(C)O [(+)-cedrol]
Conditions | vapor or sublimation pressure [kPa]
298.15 K | 7e-05
310 K | 0.00029
320 K | 0.00084
330 K | 0.0022
340 K | 0.0055
350 K | 0.013
360 K | 0.027
370 K | 0.054
380 K | 0.1
390 K | 0.19
400 K | 0.33
410 K | 0.55
420 K | 0.89
430 K | 1.4
440 K | 2.1
450 K | 3.1
460 K | 4.5
470 K | 6.3
480 K | 8.7
490 K | 12
500 K | 16
583.5 K | 101.33

Conditions | Normal melting temperature [°C]
Crystal, visual observation | 86.00
